Experimental data taken from publication PMC3210965 (Chemical research in toxicology, 2011).
≈ marks a conversion by molar mass, not a printed value. Read-outs that look alike come from different tables or passages of the source.

Experiments:
[1] = biological target: T1, rat TrxR (Rattus norvegicus, UniProt O89049); test: biochemical
T1 sequence (O89049 1-499): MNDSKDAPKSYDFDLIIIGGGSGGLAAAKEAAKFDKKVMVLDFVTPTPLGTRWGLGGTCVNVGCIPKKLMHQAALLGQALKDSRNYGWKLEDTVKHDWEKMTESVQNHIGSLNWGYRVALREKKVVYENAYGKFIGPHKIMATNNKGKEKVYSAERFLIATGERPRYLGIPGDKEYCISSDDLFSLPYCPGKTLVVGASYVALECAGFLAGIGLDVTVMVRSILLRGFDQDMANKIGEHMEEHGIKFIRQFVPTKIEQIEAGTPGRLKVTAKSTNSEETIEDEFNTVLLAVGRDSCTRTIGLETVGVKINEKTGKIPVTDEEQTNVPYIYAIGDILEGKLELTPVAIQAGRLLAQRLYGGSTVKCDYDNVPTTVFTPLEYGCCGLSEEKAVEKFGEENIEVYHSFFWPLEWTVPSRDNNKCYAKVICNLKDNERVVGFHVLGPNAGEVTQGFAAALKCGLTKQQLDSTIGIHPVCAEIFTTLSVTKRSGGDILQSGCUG

[2] = biological target: T1, rat TrxR
[3] = biological target: T2, Gpx from bovine erythrocytes (Bos taurus, UniProt P00435); type: biochemical
T2 sequence (P00435 1-205): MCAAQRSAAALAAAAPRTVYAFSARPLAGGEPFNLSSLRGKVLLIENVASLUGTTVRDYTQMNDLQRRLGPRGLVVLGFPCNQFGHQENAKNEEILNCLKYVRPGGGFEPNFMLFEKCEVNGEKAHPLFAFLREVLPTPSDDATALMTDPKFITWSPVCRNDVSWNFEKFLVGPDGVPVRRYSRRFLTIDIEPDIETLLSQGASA

[4] = biological target: T3, TrxR activity in HeLa cells (Homo sapiens, UniProt Q16881); test: cell-based; conditions: for inhibition of cellular TrxR activity: 12 h
T3 sequence (Q16881 1-499 isoform Q16881-5): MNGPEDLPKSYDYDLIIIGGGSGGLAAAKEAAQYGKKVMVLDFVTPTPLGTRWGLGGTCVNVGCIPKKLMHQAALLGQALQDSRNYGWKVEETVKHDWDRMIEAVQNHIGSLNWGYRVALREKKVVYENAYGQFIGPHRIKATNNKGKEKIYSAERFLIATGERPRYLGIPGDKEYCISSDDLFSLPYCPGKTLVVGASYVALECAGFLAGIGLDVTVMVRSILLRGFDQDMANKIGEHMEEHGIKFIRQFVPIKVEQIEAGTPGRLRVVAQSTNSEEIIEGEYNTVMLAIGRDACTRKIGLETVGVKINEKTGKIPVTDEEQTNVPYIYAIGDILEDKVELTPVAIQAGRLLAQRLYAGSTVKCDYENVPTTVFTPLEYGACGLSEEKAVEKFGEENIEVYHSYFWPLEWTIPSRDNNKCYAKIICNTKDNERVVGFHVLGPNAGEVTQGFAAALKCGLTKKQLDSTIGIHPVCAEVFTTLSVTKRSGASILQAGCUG

[5] = biological target: T4, TrxR C-terminus active site Sec and Cys (Rattus norvegicus, UniProt O89049)
T4 sequence (O89049 1-499): T1 sequence (O89049 1-499)

[6] = system: HeLa; conditions: three day continuous treatment; cited from earlier work
[7] = system: GR; conditions: cited from earlier work
[8] = system: TrxR; conditions: cited from earlier work
[9] = system: HeLa cells; test: Cell viability MTS assay; type: cell-based, human; conditions: 2 and 3 μM selenite
[10] = HeLa, read-out: inhibition of cellular TrxR activity

SMILES: CC1=CC2=C(C)C3(CC3)[C@@](C)(O)C(=O)C2=C1 [AF, acylfulvene]
- IC50 [1]: 7.3 µM
- inhibition at 50 µM ([1]; read-out: TrxR activity inhibited within five minutes): > 60%
- reversibility of TrxR inhibition (gel filtration) [2]: irreversible
- drug concentration at which an increase in Gpx activity was observed [3]: ≥ 20 µM
- inhibition at 0.2 µM [4, 10]: 20%
- inhibition at 1 µM [4, 10]: 35%
- inhibition at 4 µM [4, 10]: 60%
- intensity of BIAM label ([5]; pH 6.5): diminished in intensity
- BIAM labeling ([5]; pH 8.5): almost abolished

SMILES: CC1=C(CO)C2=C(C)C3(CC3)[C@@](C)(O)C(=O)C2=C1 [HMAF, hydroxymethylacylfulvene]
- TrxR activity inhibited within five minutes ([2]; 7.5 μM HMAF, pre-reduced TrxR, 25 °C): over 60%
- reversibility of TrxR inhibition (gel filtration) ([2]; 2 h reaction, unbound drug removed by size exclusion column): irreversible
- IC50 ([2]; read-out: IC50, inhibition of DTNB reduction activity of TrxR, NADPH-reduced TrxR (80 nM), 2 h at 25 °C): 0.38 µM
- IC50, cytotoxicity [6]: 0.02 µg/mL (≈ 0.0812 µM)
- type of GR inhibition [7]: irreversible
- drug concentration at which an increase in Gpx activity was observed [3]: ≥ 2 µM
- inhibition of cellular TrxR activity ([4]; HeLa cells, 0.2 μM): 20%
- inhibition of cellular TrxR activity ([4]; HeLa cells, 1 μM): 60%
- inhibition of cellular TrxR activity ([4]; HeLa cells, 4 μM): eliminated cellular TrxR activity
- intensity of BIAM label ([5]; pH 6.5 (free Sec), 5 μM HMAF): diminished in intensity
- BIAM labeling ([5]; pH 8.5 (free Cys and Sec), 25 μM HMAF): almost abolished

SMILES: NC(=O)CI [IAA, iodoacetamide]
- IC50 ([3]; read-out: IC50, inhibition of Gpx activity): 2400 µM

SMILES: O=C(O)CCCc1ccc(N(CCCl)CCCl)cc1 [chlorambucil]
- IC50, TrxR inhibition [8]: micromolar

SMILES: CC1=C2C(=C[C@@](C)(CO)[C@@H]2O)C(=O)[C@](C)(O)C12CC2 [illudin S, reference compound]
- IC50 [1]: 260 µM
- inhibition of TrxR without pre-reduction [2]: no inhibition was observed
- drug concentration at which an increase in Gpx activity was observed [3]: ≥ 1000 µM
- effect on Gpx activity [3]: none of the tested drugs caused a decrease in enzyme activity
- inhibition at 0.2 µM [4, 10]: 20%
- inhibition at 1 µM [4, 10]: 50%

SMILES: N[C@@H](Cc1ccc(N(CCCl)CCCl)cc1)C(=O)O [melphalan]
- IC50, TrxR inhibition [8]: micromolar

SMILES: O=[Se]([O-])[O-].[Na+].[Na+] [selenite, sodium selenite]
- cytotoxicity of added selenite (cells detached from culture dish) [9]: caused cytotoxicity

SMILES: C[S+]([O-])CCCCN=C=S (stereo not shown) [sulforaphane, reference compound]
- effect in preliminary Se plus sulforaphane TrxR co-induction tests ([4]; HeLa cells, data not shown): potentially confounding direct inhibitory properties
